Data as given in patent US20100075917A1, “THIONUCLEOSIDES AND PHARMACEUTICAL APPLICATIONS” (priority 2006, published 2010).
Like-named read-outs stand apart in the source and are kept apart here.

Key:
[1] = test system: MCF-7 mammary carcinoma cells; experiment: Cytotoxicity (MTT) on MCF-7 cells; format: cell-based, human; conditions: for CC50: Homo sapiens, MCF7, read-out: CC50 MCF-7
Description: (§1) The cytotoxic effect of a compound is studied on human CEM cells and MCF-7 mammary carcinoma cells that are or are not resistant to gemcitabine, which is an anticancer nucleoside used in chemotherapy.
(§2) The cytotoxicity (CC50) was estimated by measuring the reduction of 3-(4,5-dimethylthiazol-2-yl)-2,5-diphenyltetrazolium bromide (MTT), which is converted into insoluble violet formazan. To do this, 100 000 cells (human CEM-SS or MCF-7 lines) are inoculated per well in 100 μl of culture medium, in 96-well microtitration plates. After 24 hours, the test products are added in 100 μl and incubation is continued for 48 to 72 hours. MIT is then added in a proportion of 20 μl of a solution at 5 mg/ml in PBS. Three hours later, 100 μl of a DMF/acetic acid/HCl/SDS (sodium dodecyl sulfate) solution are added. After 3 hours at 37° C., the absorbance of the formazan is measured at 590 nm and compared with that of the untreated control.

[2] = test system: human CEM cells; experiment: Cytotoxicity (MTT) on CEM cells; format: cell-based; conditions: CCRF-CEM; for CC50: read-out: CC50 CEM; for EC50: Tables 4 and 6, CEM cells, some values 'then plateau'
Description: as §1, §2

[3] = test system: Moloney sarcoma virus; experiment: Inhibition of transformation of mouse embryo C3H/3T3 cells induced by Moloney sarcoma virus; format: cell-based; parameters: MIC (minimum inhibitory concentration): unit not given here; conditions: for MIC (minimum inhibitory concentration): C3H/3T3 cells, a second bound is given in brackets for some compounds
Excerpt: 2.2. Inhibitory Effect on the Transformation of Mouse Embryo C3H/3T3 Cells Induced by Moloney Sarcoma Virus (Model of Infection with HIV)

[4] = test system: L1210/0 murine leukemia cells; experiment: Cytotoxic effect on L1210/0 cells; format: cell-based; conditions: Tables 5 and 7, L1210/0 cells
[5] = test system: human CEM T4 lymphocytes; experiment: Cytotoxic effect on CEM T4 lymphocytes; format: cell-based; parameters: unit not given beside the values; conditions: Tables 5 and 7, CEM cells
[6] = test system: FM3A/0 murine mammary carcinoma cells; experiment: Cytotoxic effect on FM3A/0 cells; format: cell-based; parameters: unit not given beside the values; conditions: Tables 5 and 7, FM3A/0 cells
[7] = test system: HeLa cells; experiment: Cytotoxic effect on HeLa cells; format: cell-based; parameters: unit not given beside the values; conditions: Tables 5 and 7, HeLa cells
[8] = test system: human Molt4/C8 cells; experiment: Cytotoxic effect on Molt4/C8 cells; format: cell-based; conditions: Tables 5 and 7, Molt4/C8 cells
[9] = test system: HIV-2; experiment: Anti-HIV-2 effect in CEM cells; format: cell-based; conditions: CEM cells, read-out: EC50 HIV-2
Description: (§3) The evaluation test is described in Roy, B.; Chambert, S.; Lepoivre M.; Aubertin, A.-M.; Balzarini, J.; Décout, J.-L., Deoxyribonucleoside 2′- or 3′-mixed disulfides: prodrugs to target ribonucleotide reductase and/or to inhibit HIV reverse transcription. J. Med. Chem. 2003, 46, 2565-2568.
(§4) The toxicity and the antiviral activities were measured at different concentrations, and their evolution as a function of the concentration makes it possible to evaluate: • the concentration at which 50% of the cells are dead in the absence of virus (CC 50) for each of the test compounds, from the change in absorbance at 540 nm of formazan as a function of the concentration of test compound, • the concentration of compound that leads to a 50% reduction in the activity of viral reverse transcriptase (EC 50). This concentration is determined from the curve representing the change in the percentage of “remaining reverse transcriptase” activity (defined as being the ratio of the activity of the reverse transcriptase in the presence of the test compound to that of the untreated cells) as a function of the concentration of test compound.
(§5) EC50: concentration required to afford 50% protection to the CEM cells against the cytopathogenicity of HIV;

[10] = test system: HIV-1; experiment: Anti-HIV-1 effect in CEM cells; format: cell-based
Description: as §3, §4, §5

[11] = test system: HIV-2; experiment: Anti-HIV-2 effect in CEM/TK− cells; format: cell-based; conditions: Human immunodeficiency virus 2, CEM-TK(-); Third Series; CEM cells having no thymidine kinase activity
Description: as §3, §4, §5
• Effect in CEM not expressing thymidine kinase activity (CEM/TK^−, cells having no thymidine kinase activity).

[12] = transformation of C3H/3T3 cells induced by Moloney sarcoma virus, read-out: EC50 (effective concentration 50%)
[13] = Human immunodeficiency virus 2, CCRF-CEM, Third Series
[14] = Human immunodeficiency virus 1, CCRF-CEM, Third Series, read-out: EC50 HIV-1

Work on `CC(C)CCSC1=C[C@@H](CO)O[C@H]1n1ccc(=O)[nH]c1=O` [Compound 2] yielded a CC50 [1] greater than 200 µM and a CC50 ([2]; Table 3, MTT, human CEM cells) greater than 200 µM.
`Cc1cn([C@H]2C=C(SCC[Si](C)(C)C)[C@@H](CO)O2)c(=O)[nH]c1=O` [Compound 4, 2′,3′-didehydro-2′,3′-dideoxy-3′-(2-trimethylsilyl)ethylthiothymidine] was tested, and the “cytotoxicity at 200 μM, MCF-7” value [1] was 33% and the CC50 ([2]; Homo sapiens) was 82 µM.
With `C[Si](C)(C)CCSC1=C[C@@H](CO)O[C@H]1n1ccc(N)nc1=O` [Compound 5, 2′,3′-Didehydro-2′,3′-dideoxy-2′-(2-trimethylsilyl)ethylthiocytidine] the “cytotoxicity at 200 μM, MCF-7” value [1] was 41% and the CC50 ([2]; Homo sapiens) was 217 µM.
Compound `Cc1cn([C@@H]2O[C@H](CO)C=C2[S+]([O-])CC[Si](C)(C)C)c(=O)[nH]c1=O` (stereo partly shown) [Compound 6, 2′,3′-Didehydro-2′,3′-dideoxy-2′-(2-trimethylsilyl)ethylthiothymidine sulfoxide] has a CC50 ([2]; Homo sapiens) greater than 200 µM.
In the case of `Cc1cn([C@@H]2O[C@H](CO)C=C2S(=O)(=O)CC[Si](C)(C)C)c(=O)[nH]c1=O` [Compound 7, 2′,3′-Didehydro-2′,3′-dideoxy-2′-(2-trimethylsilyl)ethylthiothymidine sulfone], the CC50 [1] is reported as 120 µM and the CC50 ([2]; Homo sapiens) is reported as 63 µM.
With `C[Si](C)(C)CC[S+]([O-])C1=C[C@@H](CO)O[C@H]1n1ccc(=O)[nH]c1=O` (stereo partly shown) [Compound 8, 2′,3′-Didehydro-2′,3′-dideoxy-2′-(2-trimethylsilyl)ethylthiouridine sulfoxide] the CC50 ([2]; Homo sapiens) was greater than 200 µM.
`Cc1cn([C@@H]2O[C@H](CO)C=C2SSc2ccccc2[N+](=O)[O-])c(=O)[nH]c1=O` [Compound 11] showed an EC50 ([2]; Homo sapiens) greater than 200 µM.
For `Cc1cn([C@@H]2O[C@H](CO)C=C2SSC(Cl)(Cl)Cl)c(=O)[nH]c1=O` [Compound 12, 2′,3′-didehydro-2′,3′-dideoxythymidin-2′-yl trichloromethyl disulfide], the EC50 ([2]; Homo sapiens) was 46 µM.
With `Cc1cn(C2OC(CO)C=C2SSc2ccc([N+](=O)[O-])cc2)c(=O)[nH]c1=O` (stereo not shown) [Compound 14, 2′,3′-didehydro-2′,3′-dideoxythymidin-2′-yl 4-nitrophenyl disulfide] the “MIC (minimum inhibitory concentration)” value [3] was 100, the EC50 [3, 12] was 15 µM and the “cytotoxic effect, L1210/0” value [4] was 31 ± 3. For the same compound, the “cytotoxic effect, CEM” value [5] was 31 ± 1, the “cytotoxic effect, FM3A/0” value [6] was 39 ± 3 and the “cytotoxic effect, HeLa” value [7] was 7.4 ± 1.6. For the same compound, the “cytotoxic effect, Molt4/C8” value [8] was 12 ± 5.
In the case of `Cc1cn(C2OC(CO)C=C2SSc2ccccc2[N+](=O)[O-])c(=O)[nH]c1=O` (stereo not shown) [Compound 15, 2′,3′-didehydro-2′,3′-dideoxythymidin-2′-yl 2-nitrophenyl disulfide], the “MIC (minimum inhibitory concentration)” value [3] is reported as 100, the EC50 [3, 12] is reported as 8.3 ± 0.4 µM and the “cytotoxic effect, L1210/0” value [4] is reported as 42 ± 3. The “cytotoxic effect, CEM” value [5] was 28 ± 0, the “cytotoxic effect, FM3A/0” value [6] was 175 ± 30 and the “cytotoxic effect, HeLa” value [7] was 31 ± 1. The “cytotoxic effect, Molt4/C8” value [8] was 30 ± 15.
`O=c1ccn([C@@H]2O[C@H](CO)C=C2SSc2ccc([N+](=O)[O-])cc2)c(=O)[nH]1` [Compound 16, 2′,3′-didehydro-2′,3′-dideoxyuridin-2′-yl 4-nitrophenyl disulfide] was tested, and the EC50 [9, 13] was 9.5 ± 7.8 µM, the EC50 [10, 14] was 37.5 ± 17.7 µM and the “cytotoxic effect, L1210/0” value [4] was 42 ± 4. The EC50 [11] was 32.5 ± 25 µM, the “cytotoxic effect, CEM” value [5] was 41 ± 1 and the “cytotoxic effect, FM3A/0” value [6] was 45 ± 2. For the same compound, the “cytotoxic effect, HeLa” value [7] was 16 ± 2 and the “cytotoxic effect, Molt4/C8” value [8] was 28 ± 10.
In the case of `O=c1ccn([C@@H]2O[C@H](CO)C=C2SSc2ccccc2[N+](=O)[O-])c(=O)[nH]1` [Compound 17, 2′,3′-didehydro-2′,3′-dideoxyuridin-2′-yl 2-nitrophenyl disulfide], the EC50 [9, 13] is reported as no less than 10 µM, the EC50 [10, 14] is reported as 6.5 ± 4.9 µM and the “cytotoxic effect, L1210/0” value [4] is reported as 43 ± 5. The EC50 [11] was greater than 10 µM, the “cytotoxic effect, CEM” value [5] was 40 ± 4 and the “cytotoxic effect, FM3A/0” value [6] was 206 ± 25. The “cytotoxic effect, HeLa” value [7] was 29 ± 9 and the “cytotoxic effect, Molt4/C8” value [8] was 42 ± 1.
Compound `CSS[C@H]1C[C@H](n2ccc(N)nc2=O)O[C@@H]1CO` [Compound 19, 2′,3′-Dideoxycytidin-3′-yl methyl disulfide] has an EC50 ([9]; Human immunodeficiency virus 2, CCRF-CEM, First and Second Series, first table) of 10.5 ± 9.3 µM, an EC50 [9, 13] of 20 ± 7 µM and an EC50 ([3]; C3H/3T3, read-out: EC50 (effective concentration 50%)) of 48 ± 2 µM. The “MIC (minimum inhibitory concentration)” value [3] was greater than 100, the EC50 [10, 14] was 20 ± 7 µM and the EC50 ([10]; Human immunodeficiency virus 1, CCRF-CEM, read-out: EC50 HIV-1, First and Second Series, first table) was 3.3 ± 2.3 µM. The EC50 ([2]; Homo sapiens) was greater than 200 µM and the EC50 [11] was 45 ± 21 µM.
In the case of `CSS[C@H]1C[C@H](n2cc(Br)c(=O)[nH]c2=O)O[C@@H]1CO` [Compound 23, 5-Bromo-2′,3′-dideoxyuridin-3′-yl methyl disulfide], the EC50 ([2]; Homo sapiens) is reported as 66 µM.
With `Cc1cn([C@H]2C[C@H](SSc3ccc([N+](=O)[O-])cc3)[C@@H](CO)O2)c(=O)[nH]c1=O` [Compound 25, 3′-deoxythymidin-3′-yl 4-nitrophenyl disulfide] the “MIC (minimum inhibitory concentration)” value [3] was 20, the EC50 [3, 12] was 0.89 ± 0.36 µM and the “cytotoxic effect, L1210/0” value [4] was 32 ± 3. The “cytotoxic effect, CEM” value [5] was 34 ± 0, the “cytotoxic effect, FM3A/0” value [6] was 148 ± 16 and the “cytotoxic effect, HeLa” value [7] was 28 ± 12. The “cytotoxic effect, Molt4/C8” value [8] was 29 ± 2.
With `Cc1cn([C@H]2C[C@H](SSc3ccccc3[N+](=O)[O-])[C@@H](CO)O2)c(=O)[nH]c1=O` [Compound 26, 3′-deoxythymidin-3′-yl 2-nitrophenyl disulfide] the “MIC (minimum inhibitory concentration)” value [3] was 20, the EC50 [3, 12] was 1.1 ± 0.8 µM and the “cytotoxic effect, L1210/0” value [4] was 33 ± 7. The “cytotoxic effect, CEM” value [5] was 32 ± 1, the “cytotoxic effect, FM3A/0” value [6] was 220 ± 19 and the “cytotoxic effect, HeLa” value [7] was 15 ± 0. The “cytotoxic effect, Molt4/C8” value [8] was 31 ± 5.
`Cc1cn([C@H]2C[C@H](SSCCCCCCO)[C@@H](CO)O2)c(=O)[nH]c1=O` [Compound 30, 3′-deoxythymidin-3′-yl 6-hydroxyhexyl disulfide] gave an EC50 [9, 13] of 4.5 ± 2.1 µM, an EC50 [10, 14] of 3 µM and an EC50 [11] greater than 10 µM.
`CSC1=C[C@@H](CO)O[C@H]1n1ccc(=O)[nH]c1=O` [Compound 31, 2′,3′-didehydro-2′,3′-dideoxy-2′-methylthiouridine] gave an EC50 [9, 13] of 6.5 ± 0.7 µM, an EC50 [10, 14] of no less than 10 µM and an EC50 [11] greater than 10 µM.
For `Nc1ncnc2c1ncn2CCOCP(=O)(O)O` [PMEA, reference compound], the EC50 [3, 12] was 0.53 ± 0.13 µM.
`C[C@H](Cn1cnc2c(N)ncnc21)OCP(=O)(O)O` [Tenofovir, reference compound] showed an EC50 ([9]; First and Second Series, first table) of 2.6 µM and an EC50 ([10]; First and Second Series, first table, read-out: EC50 HIV-1) of 5.5 µM.
For (R)-PMEA [reference compound], the “MIC (minimum inhibitory concentration)” value [3] was greater than 10 and the EC50 [3, 12] was 0.23 ± 0.03 µM.
